In brackets after ≈: the same amount, converted by molar mass.
Columns and labels:
Type in all cases: cell-based
A. baumannii ATCC15308 = test: MIC determination, broth microdilution (CLSI); conditions: for MIC: Acinetobacter baumannii, ATCC15308, strain 9
K. pneumoniae 60 = test: MIC determination, broth microdilution (CLSI); conditions: for MIC: Klebsiella pneumoniae, 60, strain 2
E. coli J62 = test: MIC determination, broth microdilution (CLSI); conditions: for MIC: Escherichia coli, J62, strain 17, read-out: strain 17 MIC
M. morganii 126/3048 = test: MIC determination, broth microdilution (CLSI); conditions: for MIC: Morganella morganii, 126/3048, strain 5
P. aeruginosa PAO1 = test: MIC determination, broth microdilution (CLSI); conditions: for MIC: Pseudomonas aeruginosa, PAO1, strain 6
[1] = system: P. aeruginosa 2297-con (AmpC derepressed); test: MIC determination, broth microdilution (CLSI); conditions: for MIC: Pseudomonas aeruginosa, read-out: strain 8 MIC, strain 8
M. catarrhalis ICB489 = test: MIC determination, broth microdilution (CLSI); conditions: for MIC: Moraxella catarrhalis, ICB489, strain 12
H. influenzae ATCC 49247 = test: MIC determination, broth microdilution (CLSI); conditions: for MIC: Haemophilus influenzae, ATCC49247, strain 13, read-out: strain 13 MIC
E. coli J62-TEM-3 = test: MIC determination, broth microdilution (CLSI); conditions: for MIC: Escherichia coli, J62TEM3, read-out: strain 18 MIC, strain 18
E. cloacae 34654 = test: MIC determination, broth microdilution (CLSI); conditions: for MIC: Enterobacter cloacae, 34654, strain 3
S. aureus 133 = test: MIC determination, broth microdilution (CLSI); conditions: for MIC: Staphylococcus aureus, 133, strain 11, read-out: strain 11 MIC
strain 20 = test: MIC determination, broth microdilution (CLSI)
S. maltophilia ICB7569 = test: MIC determination, broth microdilution (CLSI); conditions: for MIC: Stenotrophomonas maltophilia, ICB7569, strain 10
E. coli ATCC25922 = test: MIC determination, broth microdilution (CLSI); conditions: for MIC: Escherichia coli, ATCC25922, strain 1
[2] = system: P. aeruginosa 2297 (AmpC wt); test: MIC determination, broth microdilution (CLSI); conditions: for MIC: Pseudomonas aeruginosa, strain 7
C. perfringens DSM756 = test: microbe, parasite or virus in culture; conditions: for MIC: Clostridium perfringens, DSM756, read-out: strain 16 MIC, strain 16
B. fragilis 6688 = test: MIC determination, broth microdilution (CLSI); conditions: for MIC: Bacteroides fragilis, 6688, strain 15, read-out: strain 15 MIC
C. freundii K21/3034 = test: MIC determination, broth microdilution (CLSI); conditions: for MIC: Citrobacter freundii, K21/3034, strain 4
strain 19 = test: MIC determination, broth microdilution (CLSI)
strain 21 = test: MIC determination, broth microdilution (CLSI)
S. pneumoniae 113 = test: MIC determination, broth microdilution (CLSI); conditions: Streptococcus pneumoniae, 113, strain 14; read-out: strain 14 MIC

Compound | strain 9 MIC (A. baumannii ATCC15308) | strain 2 MIC (K. pneumoniae 60) | strain 17 MIC (E. coli J62) | strain 5 MIC (M. morganii 126/3048) | strain 6 MIC (P. aeruginosa PAO1) | strain 8 MIC [1] | strain 12 MIC (M. catarrhalis ICB489) | MIC (H. influenzae ATCC 49247) | MIC (E. coli J62-TEM-3) | strain 3 MIC (E. cloacae 34654) | MIC (S. aureus 133) | strain 20 MIC (strain 20) | strain 1 MIC (E. coli ATCC25922) | strain 7 MIC [2] | strain 16 MIC (C. perfringens DSM756) | strain 4 MIC (C. freundii K21/3034) | strain 19 MIC (strain 19) | strain 21 MIC (strain 21) | strain 13 MIC (H. influenzae ATCC 49247) | strain 11 MIC (S. aureus 133) | other results
CC1(C)[C@H](NC(=O)/C(=N\OC(COc2ccc(C(=N)N)cc2)C(=O)O)c2csc(N)n2)C(=O)N1OS(=O)(=O)O (mixture of isomers) [Example 27A, (2S and 2R)-2-({[(1Z)-1-(2-Amino-1,3-thiazol-4-yl)-2-{[(3S)-2,2-dimethyl-4-oxo-1-(sulfo-oxy)azetidin-3-yl]amino}-2-oxoethylidene]amino}oxy)-3-(4-carbamimidoylphenoxy)-propanoic acid] | 4 µg/mL | 0.125 µg/mL | 0.25 µg/mL | 0.125 µg/mL | 4 µg/mL | 4 µg/mL | ≦0.063 mg/L | 0.5 µg/mL | 8 µg/mL | 0.25 µg/mL | ≤ 0.063 µg/mL | 0.25 µg/mL | 0.25 µg/mL | 4 µg/mL | 4 µg/mL | 0.25 µg/mL | 0.25 µg/mL | 0.25 µg/mL |  |  | MIC (S. maltophilia ICB7569): 4 µg/mL; strain 15 MIC (B. fragilis 6688): 8 µg/mL
CC1(C)[C@H](NC(=O)/C(=N\OC(COc2ccc(C(=N)N)cc2)C(=O)O)c2csc(N)n2)C(=O)N1OS(=O)(=O)O (mixture of isomers) [Example 27B, (2S and 2R)-2-({[(1Z)-1-(2-Amino-1,3-thiazol-4-yl)-2-{[(3S)-2,2-dimethyl-4-oxo-1-(sulfo-oxy)azetidin-3-yl]amino}-2-oxoethylidene]amino}oxy)-3-(4-carbamimidoylphenoxy)-propanoic acid] | 16 µg/mL | 1 µg/mL | 2 µg/mL | 1 µg/mL | 16 µg/mL | 16 µg/mL | 0.25 µg/mL |  |  | 4 µg/mL |  | 2 µg/mL | 2 µg/mL | 32 µg/mL | 32 µg/mL | 1 µg/mL | 1 µg/mL | 2 µg/mL | 0.5 µg/mL | 0.125 µg/mL | strain 18 MIC (E. coli J62-TEM-3): 8 µg/mL; strain 10 MIC (S. maltophilia ICB7569): 8 µg/mL; strain 15 MIC (B. fragilis 6688): 32 µg/mL
CC1(C)[C@H](NC(=O)/C(=N\OC(COc2ccc(C(=N)N)c(O)c2)C(=O)O)c2csc(N)n2)C(=O)N1OS(=O)(=O)O (mixture of isomers) [Example 34A, (2S and 2R)-2-({[(1Z)-1-(2-Amino-1,3-thiazol-4-yl)-2-{[(3S)-2,2-dimethyl-4-oxo-1-(sulfo-oxy)azetidin-3-yl]amino}-2-oxoethylidene]amino}oxy)-3-(4-carbamimidoyl-3-hydroxyphenoxy)propanoic acid] |  | 1 µg/mL | 1 µg/mL | 0.25 µg/mL | 8 µg/mL |  | ≦0.063 mg/L |  | 32 µg/mL | 0.5 µg/mL |  | 0.5 µg/mL | 1 µg/mL | 8 µg/mL | 2 µg/mL | 1 µg/mL | 0.5 µg/mL | 0.5 µg/mL | 0.5 µg/mL | ≦0.063 mg/L | MIC (A. baumannii ATCC15308): 32 µg/mL; MIC [1]: 16 µg/mL; strain 10 MIC (S. maltophilia ICB7569): 8 µg/mL; MIC (B. fragilis 6688): 16 µg/mL
CC1(C)[C@H](NC(=O)/C(=N\OC(COc2ccc(C(=N)N)c(O)c2)C(=O)O)c2csc(N)n2)C(=O)N1OS(=O)(=O)O (mixture of isomers) [Example 34B, (2S and 2R)-2-({[(1Z)-1-(2-Amino-1,3-thiazol-4-yl)-2-{[(3S)-2,2-dimethyl-4-oxo-1-(sulfo-oxy)azetidin-3-yl]amino}-2-oxoethylidene]amino}oxy)-3-(4-carbamimidoyl-3-hydroxyphenoxy)propanoic acid] | 32 µg/mL | 8 µg/mL | 16 µg/mL | 4 µg/mL | 32 µg/mL | 32 µg/mL | 0.5 µg/mL |  |  | 4 µg/mL |  | 4 µg/mL | 8 µg/mL | 32 µg/mL | 32 µg/mL | 8 µg/mL | 4 µg/mL | 8 µg/mL | 8 µg/mL | 0.25 µg/mL | strain 18 MIC (E. coli J62-TEM-3): 32 µg/mL; strain 10 MIC (S. maltophilia ICB7569): 32 µg/mL
CC1(C)[C@H](NC(=O)/C(=N\OC(COc2ccc(C(=N)N)nc2)C(=O)O)c2csc(N)n2)C(=O)N1OS(=O)(=O)O (mixture of isomers) [Example 36B, (2S and 2R)-2-({[(1Z)-1-(2-Amino-1,3-thiazol-4-yl)-2-{[(3S)-2,2-dimethyl-4-oxo-1-(sulfo-oxy)azetidin-3-yl]amino}-2-oxoethylidene]amino}oxy)-3-[(6-carbamimidoylpyridin-3-yl)oxy]propanoic acid] | 32 µg/mL | 1 µg/mL | 4 µg/mL | 2 µg/mL | 16 µg/mL | 32 µg/mL | 0.5 µg/mL |  |  | 2 µg/mL |  | 2 µg/mL | 2 µg/mL |  | 32 µg/mL | 0.5 µg/mL | 2 µg/mL | 2 µg/mL | 4 µg/mL | 0.125 µg/mL | strain 18 MIC (E. coli J62-TEM-3): 32 µg/mL; strain 10 MIC (S. maltophilia ICB7569): 16 µg/mL; strain 15 MIC (B. fragilis 6688): 32 µg/mL
C[C@H]1[C@H](NC(=O)/C(=N\OCCOc2ccc(C(=N)N)cc2)c2csc(N)n2)C(=O)N1OCS(=O)(=O)O [Example 12, {[(2S,3S)-3-{[(2Z)-2-(2-Amino-1,3-thiazol-4-yl)-2-{[2-(4-carbamimidoylphenoxy)ethoxy]imino}acetyl]amino}-2-methyl-4-oxoazetidin-1-yl]oxy}methanesulfonic acid] |  |  |  |  |  |  |  | ≤ 0.063 µg/mL | 8 µg/mL (≈ 14.8 µM) |  | 0.125 µg/mL (≈ 0.231 µM) |  |  |  |  |  |  |  |  |  | MIC (A. baumannii ATCC15308): 4 µg/mL (≈ 7.39 µM); MIC (K. pneumoniae 60): 0.25 µg/mL (≈ 0.462 µM); MIC (E. coli J62): 0.5 µg/mL (≈ 0.923 µM); MIC (M. morganii 126/3048): 0.25 µg/mL (≈ 0.462 µM); MIC (P. aeruginosa PAO1): 4 µg/mL (≈ 7.39 µM); MIC (M. catarrhalis ICB489): 0.25 µg/mL (≈ 0.462 µM); MIC (E. cloacae 34654): 0.5 µg/mL (≈ 0.923 µM); MIC (strain 20): 0.25 µg/mL (≈ 0.462 µM); MIC (S. pneumoniae 113): 32 µg/mL (≈ 59.1 µM); MIC (S. maltophilia ICB7569): 8 µg/mL (≈ 14.8 µM); MIC (E. coli ATCC25922): 0.5 µg/mL (≈ 0.923 µM); MIC [2]: 8 µg/mL (≈ 14.8 µM); MIC (C. perfringens DSM756): 16 µg/mL (≈ 29.5 µM); MIC (B. fragilis 6688): 8 µg/mL (≈ 14.8 µM); MIC (C. freundii K21/3034): 0.25 µg/mL (≈ 0.462 µM); MIC (strain 19): 0.5 µg/mL (≈ 0.923 µM); MIC (strain 21): 0.25 µg/mL (≈ 0.462 µM)
Cc1cc(OCCO/N=C(\C(=O)N[C@@H]2C(=O)N(OS(=O)(=O)O)C2(C)C)c2csc(N)n2)ccc1C(=N)N [Example 13, (2Z)-2-(2-Amino-1,3-thiazol-4-yl)-2-{[2-(4-carbamimidoyl-3-methylphenoxy)ethoxy]imino}-N-[(3S)-2,2-dimethyl-4-oxo-1-(sulfooxy)azetidin-3-yl]ethanamide] |  |  |  |  |  |  |  | ≤ 0.063 µg/mL | 32 µg/mL (≈ 57.6 µM) |  | ≤ 0.063 µg/mL |  |  |  |  |  |  |  |  |  | MIC (A. baumannii ATCC15308): 1 µg/mL (≈ 1.8 µM); MIC (K. pneumoniae 60): 1 µg/mL (≈ 1.8 µM); MIC (E. coli J62): 0.5 µg/mL (≈ 0.9 µM); MIC (M. morganii 126/3048): 0.5 µg/mL (≈ 0.9 µM); MIC (P. aeruginosa PAO1): 8 µg/mL (≈ 14.4 µM); MIC [1]: 8 µg/mL (≈ 14.4 µM); MIC (M. catarrhalis ICB489): 0.125 µg/mL (≈ 0.225 µM); MIC (E. cloacae 34654): 1 µg/mL (≈ 1.8 µM); MIC (strain 20): 0.5 µg/mL (≈ 0.9 µM); MIC (S. pneumoniae 113): 4 µg/mL (≈ 7.2 µM); MIC (E. coli ATCC25922): 0.5 µg/mL (≈ 0.9 µM); MIC [2]: 16 µg/mL (≈ 28.8 µM); MIC (C. perfringens DSM756): 2 µg/mL (≈ 3.6 µM); MIC (B. fragilis 6688): 4 µg/mL (≈ 7.2 µM); MIC (C. freundii K21/3034): 0.25 µg/mL (≈ 0.45 µM); MIC (strain 19): 0.5 µg/mL (≈ 0.9 µM); MIC (strain 21): 0.5 µg/mL (≈ 0.9 µM)
C[C@H]1[C@H](NC(=O)/C(=N\OC(C)(C)COc2ccc(C(=N)N)cc2)c2csc(N)n2)C(=O)N1S(=O)(=O)O [Example 18, (2S,3S)-3-{[(2Z)-2-(2-Amino-1,3-thiazol-4-yl)-2-({[1-(4-carbamimidoylphenoxy)-2-methylpropan-2-yl]oxy}imino)acetyl]amino}-2-methyl-4-oxoazetidine-1-sulfonic acid] |  |  |  |  |  |  |  | 0.5 µg/mL (≈ 0.927 µM) | 4 µg/mL (≈ 7.41 µM) |  | 0.25 µg/mL (≈ 0.463 µM) |  |  |  |  |  |  |  |  |  | MIC (A. baumannii ATCC15308): 16 µg/mL (≈ 29.7 µM); MIC (K. pneumoniae 60): 1 µg/mL (≈ 1.85 µM); MIC (E. coli J62): 2 µg/mL (≈ 3.71 µM); MIC (M. morganii 126/3048): 1 µg/mL (≈ 1.85 µM); MIC (P. aeruginosa PAO1): 4 µg/mL (≈ 7.41 µM); MIC [1]: 16 µg/mL (≈ 29.7 µM); MIC (M. catarrhalis ICB489): 0.5 µg/mL (≈ 0.927 µM); MIC (E. cloacae 34654): 2 µg/mL (≈ 3.71 µM); MIC (strain 20): 2 µg/mL (≈ 3.71 µM); MIC (S. pneumoniae 113): 4 µg/mL (≈ 7.41 µM); MIC (S. maltophilia ICB7569): 16 µg/mL (≈ 29.7 µM); MIC (E. coli ATCC25922): 1 µg/mL (≈ 1.85 µM); MIC [2]: 4 µg/mL (≈ 7.41 µM); MIC (B. fragilis 6688): 4 µg/mL (≈ 7.41 µM); MIC (C. freundii K21/3034): 1 µg/mL (≈ 1.85 µM); MIC (strain 19): 2 µg/mL (≈ 3.71 µM); MIC (strain 21): 2 µg/mL (≈ 3.71 µM)

— patent US9556165B2 (priority 2012, dated 2017)
